Measured values published in patent US9579329B2, “Use of estetrol as emergency contraceptive” (Estetra S.P.R.L., priority 2011, dated 2017).
Like-named read-outs stand apart in the source and are kept apart here.

Assays:
[1] = system: ovulation in four-day cyclic rats; experiment: Anti-ovulatory effect in four-day cyclic rats, oral twice daily for four days, ova per oviduct counted; type: in vivo, rat; details: for ED50: Rattus norvegicus, po, 96 h, four-day cyclic rats; for rats with ovulation inhibited: Days 1-4, 8 rats per group
Protocol: Vaginal smears from female rats were obtained daily for two weeks prior to the start of treatment to identify four-day cycling rats. All treatments were administered orally twice daily at approximately 6:30 am and 4:30 pm for four consecutive days (Days 1-4), starting on the day of estrus. One day after the final dose (Day 5), the rats were euthanized by CO2 asphyxiation at approximately 1 pm, and the number of ova per oviduct was counted by visualization under a dissecting microscope and recorded. In one study, animals (8 per group) were treated with E4 (0.03; 0.1; 0.3; 1.0 or 3.0 mg/kg) or ethinylestradiol (EE) (0.0003; 0.001; 0.003, 0.01 or 0.03 mg/kg). The control group was given the vehicle only. In another study, the antiovulatory activity of E4 was evaluated relative to that of estradiol (E2). Animals (8 per group) were treated with E4, E2 or vehicle (control group).

[2] = Pharmacokinetics of a single oral dose in healthy postmenopausal women; type: in vivo, human; details: for half-life: female, human, plasma, po, postmenopausal women
Protocol: (§1) In the present example the safety, tolerability, pharmacokinetics and pharmacodynamics of a single escalating dose of E4 (0.1, 1, 10 and 100 mg) was evaluated in healthy postmenopausal women.
(§2) A double-blind, randomized, placebo-controlled, single rising dose study (0.1, 1, 10 and 100 mg of E4) was performed in healthy postmenopausal women. 32 healthy postmenopausal female volunteers between 53 and 69 years of age were enrolled. Menopause was defined as ≧12 months amenorrhea or 6 months amenorrhea with serum FSH levels≧40 IU/l and serum E2<73 pmol/l. […] A total of 8 subjects were assigned to each dose group; six subjects received active treatment and two subjects received placebo.
Plasma concentration profiles could not be determined in subjects of the 0.1 mg group.

[3] = system: ovulation and pregnancy in fertile female rabbits; experiment: Prevention of pregnancy in rabbits, twice daily dosing for 14 days starting four days before mating; type: in vivo, rabbit
Protocol: Eighteen proven fertile female rabbits, 3 per group were dosed twice daily at approximately 12 hour intervals for 14 days starting four days before mating: Group 1: vehicle control (ASV: 0.9% sodium chloride, 0.4% polysorbate 80, 0.5% carboxymethylcellulose and 0.9% benzyl alcohol in distilled or deionised water, 1 ml/kg), Group 2: 0.01 mg/kg E4 in ASV, 1 ml/kg, Group 3: 0.03 mg/kg E4 in ASV, 1 ml/kg, Group 4: 0.1 mg/kg E4 in ASV, 1 ml/kg, Group 5: 0.3 mg/kg E4 in ASV, 1 ml/kg and Group 6: 1.0 mg/kg E4 in ASV, 1 ml/kg. Doses were determined by body weights taken the first day of dosing and were adjusted according to weights obtained one week later. Each female rabbit was bred with two proven fertile male rabbits after four days of dosing. The females were necropsied ten days later and the number of pregnancies were determined.

mated female Wistar rats = experiment: Effects of E4 on the pregnancy of the Wistar rat, oral gavage Day 6 to 17 of gestation; type: in vivo; details: for females observed to be hunched towards the end of gestation: seven rats per group
Protocol: In one study, groups of seven mated female rats were given E4 orally, by gavage, at dose levels of 30, 60 or 90 mg/kg/day from Day 6 to 17 of gestation inclusive. A similar group of seven rats was given the vehicle, 0.5% w/v carboxymethylcellulose, over the same period to act as controls. On Day 20 of gestation, the females were examined.
In another study, using the same protocol as the study above, groups of seven mated female rats were given E4 at dose levels of 0.1, 0.3, 1, 3 and 10 mg/kg/day or vehicle (controls).

plasma LH levels = experiment: Pharmacodynamics: plasma LH levels after a single oral dose in postmenopausal women; type: in vivo, human
Protocol: as §1, §2
The maximum mean suppression was 48% at 4 hours after dosing. A second LH trough of 45% is seen at 12 hours after dosing, synchronous with the mean E4 levels.

[4] = system: healthy postmenopausal women; experiment: Safety and tolerability of a single rising oral dose in healthy postmenopausal women; type: in vivo, human; details: for safety and tolerability after single administration: dose up to 100 mg, humans
Protocol: as §1, §2

FSH levels = experiment: Pharmacodynamics: FSH levels after a single oral dose in postmenopausal women; type: in vivo, human; details: 100 mg dose group
Protocol: as §1, §2

[5] = system: adult female cynomolgus monkeys; experiment: Maximum tolerated dose (MTD) study in adult female cynomolgus monkeys; type: in vivo
Protocol: A maximum tolerated dose (MTD) study was performed in adult female cynomolgus monkeys.
Three control animals were treated orally with vehicle, and four other animals were treated orally with E4 as a suspension in vehicle at single increasing doses of 1, 10, 100 or 1000 mg/kg on days 1, 3, 6 and 14 respectively.

[6] = system: estrogen-sensitive parameters related to hepatic and bone metabolism; experiment: Pharmacodynamics: estrogen-sensitive hepatic and bone metabolism parameters and endometrial stimulation in postmenopausal women; type: in vivo, human; details: single oral dose
Protocol: as §1, §2
Some fast reacting, estrogen-sensitive parameters related to hepatic and bone metabolism were determined in the 100-mg dose group only. […] Interpretation of the pharmacodynamic data must be made with care taking into consideration the small number of subjects and the single dose administration.

[7] = another study, E4 vs E2, p.o., read-out: antiovulatory ED50
[8] = 0.01 mg/kg twice daily, one female failed to breed
[9] = 0.03 mg/kg twice daily, 3 animals per group
[10] = 1.0 mg/kg twice daily, 3 animals per group
[11] = 30, 60 or 90 mg/kg/day oral gavage, Day 6 to 17 of gestation
[12] = all dose groups 30, 60, 90 mg/kg/day
[13] = single increasing oral doses 1-1000 mg/kg

## C#C[C@]1(O)CC[C@H]2[C@@H]3CCc4cc(O)ccc4[C@H]3CC[C@@]21C [EE, ethinylestradiol, reference compound]
[1]; study E4 vs EE, p.o. twice daily, read-out: calculated antiovulatory ED50
  ED50: 0.01 mg/kg

## C[C@]12CC[C@@H]3c4ccc(O)cc4CC[C@H]3[C@@H]1CC[C@@H]2O [E2, estradiol, reference compound]
[1]; [7]
  ED50: 0.03 to 0.1 mg/kg

## C[C@]12CC[C@@H]3c4ccc(O)cc4CC[C@H]3[C@@H]1[C@@H](O)[C@@H](O)[C@@H]2O [E4, 1,3,5(10)-estratrien-3, 15α, 16α, 17β-tetrol]
[2]; dose range tested
  oral bioabsorption: high and dose-proportional
[2]; single oral dose, read-out: terminal half life (converted)
  half-life: 28 h
[2]; single oral dose, read-out: terminal half life, ranges
  half-life: 18 to 60 h
[2]; range from 1 to 100 mg oral
  Cmax dose proportionality: proportional
[2]; range from 10 to 100 mg oral
  AUC0-∞ dose proportionality: proportional to the oral dose
[2]; single oral dose
  absorption: extremely fast
  terminal half life and fractional clearance, effect of dose level: not affected by dose level
[2]; single oral dose, 1-100 mg
  inter-subject variability of pharmacokinetic data: very low
[3]
  dosages that caused complete prevention of pregnancy: > 0.03 mg/kg b.i.d.
[3]; [8]
  N corpora lutea, total number: 22
  N pregnancies, total number: 22
[3]; [9]
  N corpora lutea, total number: 22
  N pregnancies, total number: 21
[3]; 0.1 mg/kg twice daily, 3 animals per group
  N corpora lutea, total number: 20
[3]; 0.3 mg/kg twice daily, 3 animals per group
  N corpora lutea, total number: 20
[3]; [10]
  N corpora lutea, total number: 3
  N pregnancies, total number: 0
[3]; oral
  oral doses that induce inhibition of ovulation: > 0.3 mg/kg b.i.d.
Mated female Wistar rats; 3 mg/kg/day
  females observed to be hunched towards the end of gestation: one female
Mated female Wistar rats; 10 mg/kg/day
  mean body weight during treatment period: overall loss in mean body weight
  mean food intake: reduced mean food intake
  females observed to be hunched towards the end of gestation: Three females
Mated female Wistar rats; 0.1, 0.3, 1 and 3 mg/kg/day
  mean body weight gains over treatment period: less than the controls
Mated female Wistar rats; 0.3, 1 and 3 mg/kg/day
  mean gravid uterus weight: reduction in mean gravid uterus weight
Mated female Wistar rats; 1 and 3 mg/kg/day
  mean food intake over treatment period: slightly lower than the control
Mated female Wistar rats; [11]
  clinical observations or necropsy findings related to treatment: no relevant unexpected clinical observations or necropsy findings
  deaths: no deaths
Mated female Wistar rats; [12]
  group mean body weight over treatment period: Group mean body weight loss
  mean food intake over treatment period: marked reduction in mean food intake
Mated female Wistar rats; another study, 0.1, 0.3, 1, 3 and 10 mg/kg/day
  deaths: no deaths
Mated female Wistar rats; dose level below 3 mg/kg/day
  maternal toxicity: only slight maternal toxicity
Plasma LH levels; 4 hours after dosing, 100 mg group shown in FIG. 2
  maximum mean suppression of LH: 48%
Plasma LH levels; 12 hours after dosing, 100 mg group shown in FIG. 2
  second LH trough: 45%
Plasma LH levels; up to 48 hours after dosing
  inhibition of plasma LH levels: clear dose-dependent inhibition
[4]; 0.1 mg single oral dose, N = 6
  Somnolence, E = number of adverse events: 1
  Somnolence, n = number of subjects with adverse events: 1
  Somnolence, percentage of subjects with adverse events: 16.7%
[4]; 1 mg single oral dose, N = 6
  Somnolence, E = number of adverse events: 1
  Somnolence, n = number of subjects with adverse events: 1
  Somnolence, percentage of subjects with adverse events: 16.7%
[4]; 10 mg group
  number of AEs: just one AE
[4]; 10 mg single oral dose, N = 6
  Myalgia, E = number of adverse events: 1
  Myalgia, n = number of subjects with adverse events: 1
  Myalgia, percentage of subjects with adverse events: 16.7%
[4]; 0.1, 1.0 and 10 mg
  number and nature of AEs versus placebo: similar
[4]; 100 mg
  number of AEs (all AEs and related AEs): highest
[4]; 100 mg single oral dose, N = 6
  Diarrhoea NOS, E = number of adverse events: 2
  Diarrhoea NOS, n = number of subjects with adverse events: 2
  Diarrhoea NOS, percentage of subjects with adverse events: 33.3%
  Myalgia, E = number of adverse events: 2
  Myalgia, n = number of subjects with adverse events: 2
  Myalgia, percentage of subjects with adverse events: 33.3%
  Somnolence, E = number of adverse events: 2
  Somnolence, n = number of subjects with adverse events: 2
  Somnolence, percentage of subjects with adverse events: 33.3%
[4]
  safety and tolerability after single administration: In conclusion, the results of this study showed that E4 after single administration at a dose up to 100 mg is safe and well tolerated.
[4]; listed as estetrol
  safety and tolerability after single administration: safe and well tolerated
[4]; one subject of the 100 mg group, not serious, mild, probably related
  notable adverse event: allergic reaction (urticaria)
[4]; single doses 0.1, 1, 10 and 100 mg
  severe or serious adverse events: No severe or serious adverse events
[4]; single doses 0.1-100 mg
  changes in ECGs, laboratory tests or vital signs: no notable changes
FSH levels; 48 hrs after dosing
  maximum suppression of FSH: 41%
FSH levels; up to 168 hours (1 week) after dosing
  inhibition of FSH levels: profound and sustained inhibition
[1]; 0.03 mg/kg p.o. twice daily
  rats with ovulation inhibited: did not inhibit ovulation
[1]; 0.1 mg/kg p.o. twice daily
  rats with ovulation inhibited: 2 of 8
[1]; 0.3 mg/kg p.o. twice daily
  rats with ovulation inhibited: 5 of 8
[1]; 1.0 mg/kg p.o. twice daily
  rats with ovulation inhibited: 7 of 8
[1]; 3.0 mg/kg p.o. twice daily
  rats with ovulation inhibited: 8 of 8
[1]; [7]
  ED50: 0.204 mg/kg
[5]; 1 mg/kg, the day after dosing
  animals with decreased levels of inorganic phosphorus: 3 of 4
[5]; 1000 mg/kg oral, approximately 12 h after dosing
  adverse clinical sign: emesis in one E4-treated animal
[5]; after the 100 mg/kg dose
  animals with decreased levels of inorganic phosphorus: all E4-treated animals
[5]; after the 1000 mg/kg dose
  animals with decreased levels of inorganic phosphorus: all E4-treated animals
[5]; doses up to 1000 mg/kg
  tolerability of single oral treatment: well tolerated
[5]; [13]
  effects on body weight or haematological parameters: No effects
  gross necropsy: did not reveal any unusual findings
  liver parameters (AST, ALT): no apparent test item- or dose-related findings
[6]
  endometrial stimulation (withdrawal bleeding after progestogen post treatment): No significant endometrial stimulation
